Test results published in US12617779B2, “Self degradation-type CDK9 inhibitor prodrug and liposome encapsulating same” (Sumitomo Pharma Co., Ltd., priority 2021, dated 2026).
Where a name gives a salt, the structure may show the parent alone.

Test: Liposome encapsulation test, remote loading method (Experimental Example 4);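 for encapsulation efficiency: encapsulated compound as percent of compound amount introduced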
Type: physicochemical
Settings: for encapsulation rate, encapsulation efficiency and encapsulated compound content per 50 μmol of lipid: remote loading into liposomes
Description: For Example 1, Example 2, Example 3, Example 4, Example 5, Example 6, Example 7, Example 8, Example 9, Example 10, Example 11, Example 12, Example 13, Example 14, Example 15, Example 16, Example 17 and Alvocidib, an encapsulation test in liposomes was performed using a remote loading method.
<Liposome Encapsulation Test of Example 1, Example 2, Example 5, Example 6, Example 9, Example 10, Example 11, Example 12, Example 13, Example 14, Example 15, and Example 16>
Hydrogenated soybean phosphatidylcholine (COATSOME NC-21E, manufactured by NOF CORPORATION, 7.77 g), cholesterol (manufactured by Sigma, 2.78 g) and distearoylphosphatidylethanolamine-methoxypolyethylene glycol 2000 (SUNBRIGHT DSPE-020CN, manufactured by NOF CORPORATION, 2.47 g) were dissolved in tert-butyl alcohol (720 mL) warmed to 65° C. The solution was placed in an eggplant flask and frozen in a dry ice-acetone bath, and then the tert-butyl alcohol was removed by evaporation under reduced pressure to give a lipid mixture.
To the above lipid mixture was added a 250 mM ammonium sulfate solution (240 mL), and the mixture was warmed to 65° C., and dispersed by a homogenizer (ULTRA-TURRAX, manufactured by IKA) to give a crude liposome dispersion. Then, the crude liposome dispersion was dispersed by a high pressure homogenizer (Nano-Mizer NM2, manufactured by YOSHIDA KIKAI CO., LTD.) at a pressure of 100 MPa to give liposomes with an average particle size (Z-average) of about 80 nm. The liposome outer solution was replaced with 10 mM L-histidine/10% sucrose solution (pH 6.5) using a dialysis cassette (Slide-A-Lyzer G2 Dialysis Cassettes 20K MWCO, manufactured by Thermo Scientific) to give an empty liposome solution. The solution was filtered through a 0.22 μm membrane filter, and a 10 mM L-histidine/10% sucrose solution (pH 6.5) was added thereto to adjust the total lipid concentration to 50 mM (50 μmol/mL). The lipid concentration was determined by quantitatively analyzing cholesterol using HPLC and calculating the total lipid concentration from the lipid mixing ratio. The amount for the above adjustment was increased or decreased as appropriate.
The compound (10 mg) was weighed, and the empty liposome solution (1 mL) with a total lipid concentration of 50 mM was added thereto. The solution was adjusted to pH 5 to 6 with 1 mol/L hydrochloric acid or 1 mol/L aqueous sodium hydroxide solution as necessary, warmed in a 65° C. water bath for 2 to 3 minutes, and ice-cooled. The mixture was centrifuged at 15,000×g for 5 minutes to precipitate and remove insoluble substances.
The liposome solution (100 μL) after removing insoluble substances was taken on an ultrafiltration filter (Amicon Ultra, 100K, 0.5 mL, manufactured by Merck) and centrifuged at 4° C., 15,000×g for 10 minutes. The compound concentrations in the liposome solution after removing insoluble substances and in the filtrate after ultrafiltration were determined by HPLC, and the encapsulation rate, encapsulation efficiency, and encapsulated compound content per 50 μmol of lipid were calculated by the following formula.
The measurement conditions for HPLC are as follows.
An empty liposome solution with a total lipid concentration of 75 mM was prepared by the same procedure as for the above example compound group. Each compound was weighed, and the empty liposome solution with a total lipid concentration of 75 mM was added thereto such that the compound concentration became 15 mg/mL. The solution was adjusted to pH 5 to 6 with 1 mol/L hydrochloric acid or 1 mol/L aqueous sodium hydroxide solution, warmed in a 65° C. water bath for 3 minutes, and ice-cooled. Hereafter, the encapsulation rate and encapsulation efficiency were calculated by the same procedure as for the above example compound group. The encapsulated compound content per 50 μmol of lipid was calculated by the following formula.
[formula] <Liposome Encapsulation Test of Example 7, Example 8 and Example 17> […]

[1] = Compound concentration when encapsulated 10 mg/mL
[2] = Compound concentration when encapsulated 15 mg/mL

In the case of CCN(C[C@@H]1CCCCN1)C(=O)Oc1cc(O)c2c(=O)cc(-c3ccccc3Cl)oc2c1[C@H]1CCN(C)C[C@H]1O [Example 1, 2-(2-chlorophenyl)-5-hydroxy-8-[(3S,4R)-3-hydroxy-1-methylpiperidin-4-yl]-4-oxo-4H-1-benzopyran-7-yl ethyl{[(2S)-piperidin-2-yl]methyl}carbamate ditrifluoroacetate], the “Encapsulated compound content per 50 μmol of lipid” value [1] is reported as 7.3 mg, the Encapsulation efficiency [1] is reported as 73.2% and the Encapsulation rate [1] is reported as 82.9%. For the same compound, the “encapsulation rate, encapsulation efficiency and encapsulated compound content per 50 μmol of lipid” value (shortened to “encapsulation rate … per 50 μmol of lipid”) was “high”.
With CCN(C[C@H]1CCCCN1)C(=O)Oc1cc(O)c2c(=O)cc(-c3ccccc3Cl)oc2c1[C@H]1CCN(C)C[C@H]1O [Example 2, 2-(2-chlorophenyl)-5-hydroxy-8-[(3S,4R)-3-hydroxy-1-methylpiperidin-4-yl]-4-oxo-4H-1-benzopyran-7-yl ethyl{[(2R)-piperidin-2-yl]methyl}carbamate] the “Encapsulated compound content per 50 μmol of lipid” value [1] was 7.1 mg, the Encapsulation efficiency [1] was 71.1% and the Encapsulation rate [1] was 81.1%. The “encapsulation rate … per 50 μmol of lipid” value was “high”.
In the case of CN1CC[C@H](c2c(OC(=O)N(C)C[C@@H]3CCCCN3)cc(O)c3c(=O)cc(-c4ccccc4Cl)oc23)[C@H](O)C1 [Example 3, 2-(2-chlorophenyl)-5-hydroxy-8-[(3S,4R)-3-hydroxy-1-methylpiperidin-4-yl]-4-oxo-4H-1-benzopyran-7-yl methyl{[(2S)-piperidin-2-yl]methyl}carbamate], the “Encapsulated compound content per 50 μmol of lipid” value [2] is reported as 6.0 mg, the Encapsulation efficiency [2] is reported as 60.2% and the Encapsulation rate [2] is reported as 61.0%. The “encapsulation rate … per 50 μmol of lipid” value was “high”.
For CN1CC[C@H](c2c(OC(=O)N(C)C[C@H]3CCCCN3)cc(O)c3c(=O)cc(-c4ccccc4Cl)oc23)[C@H](O)C1 [Example 4, 2-(2-chlorophenyl)-5-hydroxy-8-[(3S,4R)-3-hydroxy-1-methylpiperidin-4-yl]-4-oxo-4H-1-benzopyran-7-yl methyl{[(2R)-piperidin-2-yl]methyl}carbamate], the “Encapsulated compound content per 50 μmol of lipid” value [2] was 7.1 mg, the Encapsulation efficiency [2] was 71.2% and the Encapsulation rate [2] was 72.2%. The “encapsulation rate … per 50 μmol of lipid” value was “high”.
In the case of CCCN(C[C@@H]1CCCCN1)C(=O)Oc1cc(O)c2c(=O)cc(-c3ccccc3Cl)oc2c1[C@H]1CCN(C)C[C@H]1O [Example 5, 2-(2-chlorophenyl)-5-hydroxy-8-[(3S,4R)-3-hydroxy-1-methylpiperidin-4-yl]-4-oxo-4H-1-benzopyran-7-yl {[(2S)-piperidin-2-yl]methyl}propylcarbamate], the “Encapsulated compound content per 50 μmol of lipid” value [1] is reported as 7.2 mg, the Encapsulation efficiency [1] is reported as 71.6% and the Encapsulation rate [1] is reported as 75.7%. The “encapsulation rate … per 50 μmol of lipid” value was “high”.
With CCCN(C[C@H]1CCCCN1)C(=O)Oc1cc(O)c2c(=O)cc(-c3ccccc3Cl)oc2c1[C@H]1CCN(C)C[C@H]1O [Example 6, 2-(2-chlorophenyl)-5-hydroxy-8-[(3S,4R)-3-hydroxy-1-methylpiperidin-4-yl]-4-oxo-4H-1-benzopyran-7-yl {[(2R)-piperidin-2-yl]methyl}propylcarbamate] the “Encapsulated compound content per 50 μmol of lipid” value [1] was 6.6 mg, the Encapsulation efficiency [1] was 65.9% and the Encapsulation rate [1] was 73.8%. The “encapsulation rate … per 50 μmol of lipid” value was “high”.
For CCN(CC1CCCCN1)C(=O)Oc1cc(O)c2c(=O)cc(-c3ccccc3Cl)oc2c1[C@H]1CCN(C)C[C@H]1O (stereo partly drawn) [Example 7, 2-(2-chlorophenyl)-5-hydroxy-8-[(3S,4R)-3-hydroxy-1-methylpiperidin-4-yl]-4-oxo-4H-1-benzopyran-7-yl ethyl[(piperidin-2-yl)methyl]carbamate dihydrochloride], the “Encapsulated compound content per 50 μmol of lipid” value [1] was 7.3 mg, the Encapsulation efficiency [1] was 72.8% and the Encapsulation rate [1] was 81.1%. The “encapsulation rate … per 50 μmol of lipid” value was “high”.
For CN1CC[C@H](c2c(OC(=O)N(C)CC3CCCCN3)cc(O)c3c(=O)cc(-c4ccccc4Cl)oc23)[C@H](O)C1 (stereo partly drawn) [Example 8, 2-(2-chlorophenyl)-5-hydroxy-8-[(3S,4R)-3-hydroxy-1-methylpiperidin-4-yl]-4-oxo-4H-1-benzopyran-7-yl methyl[(piperidin-2-yl)methyl]carbamate], the “Encapsulated compound content per 50 μmol of lipid” value [1] was 6.1 mg, the Encapsulation efficiency [1] was 61.1% and the Encapsulation rate [1] was 60.6%. The “encapsulation rate … per 50 μmol of lipid” value was “high”.
For CCCN(CC1CCCCN1)C(=O)Oc1cc(O)c2c(=O)cc(-c3ccccc3Cl)oc2c1[C@H]1CCN(C)C[C@H]1O (stereo partly drawn) [Example 9, 2-(2-chlorophenyl)-5-hydroxy-8-[(3S,4R)-3-hydroxy-1-methylpiperidin-4-yl]-4-oxo-4H-1-benzopyran-7-yl [(piperidin-2-yl)methyl]propylcarbamate], the “Encapsulated compound content per 50 μmol of lipid” value [1] was 7.2 mg, the Encapsulation efficiency [1] was 72.1% and the Encapsulation rate [1] was 78.5%. The “encapsulation rate … per 50 μmol of lipid” value was “high”.
For CC(C)N(CC1CCCCN1)C(=O)Oc1cc(O)c2c(=O)cc(-c3ccccc3Cl)oc2c1[C@H]1CCN(C)C[C@H]1O (stereo partly drawn) [Example 10, 2-(2-chlorophenyl)-5-hydroxy-8-[(3S,4R)-3-hydroxy-1-methylpiperidin-4-yl]-4-oxo-4H-1-benzopyran-7-yl [(piperidin-2-yl)methyl]propan-2-ylcarbamate], the “Encapsulated compound content per 50 μmol of lipid” value [1] was 2.3 mg, the Encapsulation efficiency [1] was 23.0% and the Encapsulation rate [1] was 22.8%.
For CN1CC[C@H](c2c(OC(=O)N(CCF)CC3CCCCN3)cc(O)c3c(=O)cc(-c4ccccc4Cl)oc23)[C@H](O)C1 (stereo partly drawn) [Example 11, 2-(2-chlorophenyl)-5-hydroxy-8-[(3S,4R)-3-hydroxy-1-methylpiperidin-4-yl]-4-oxo-4H-1-benzopyran-7-yl (2-fluoroethyl) [(piperidin-2-yl)methyl]carbamate], the “Encapsulated compound content per 50 μmol of lipid” value [1] was 4.6 mg, the Encapsulation efficiency [1] was 46.1% and the Encapsulation rate [1] was 45.5%.
In the case of COCCN(CC1CCCCN1)C(=O)Oc1cc(O)c2c(=O)cc(-c3ccccc3Cl)oc2c1[C@H]1CCN(C)C[C@H]1O (stereo partly drawn) [Example 12, 2-(2-chlorophenyl)-5-hydroxy-8-[(3S,4R)-3-hydroxy-1-methylpiperidin-4-yl]-4-oxo-4H-1-benzopyran-7-yl (2-methoxyethyl) [(piperidin-2-yl)methyl]carbamate], the “Encapsulated compound content per 50 μmol of lipid” value [1] is reported as 3.6 mg, the Encapsulation efficiency [1] is reported as 36.2% and the Encapsulation rate [1] is reported as 35.8%.
With CN1CC[C@H](c2c(OC(=O)N(CCC(F)(F)F)CC3CCCCN3)cc(O)c3c(=O)cc(-c4ccccc4Cl)oc23)[C@H](O)C1 (stereo partly drawn) [Example 13, 2-(2-chlorophenyl)-5-hydroxy-8-[(3S,4R)-3-hydroxy-1-methylpiperidin-4-yl]-4-oxo-4H-1-benzopyran-7-yl [(piperidin-2-yl)methyl](3,3,3-trifluoropropyl)carbamate] the “Encapsulated compound content per 50 μmol of lipid” value [1] was 3.5 mg, the Encapsulation efficiency [1] was 34.6% and the Encapsulation rate [1] was 35.2%.
In the case of CN1CC[C@H](c2c(OC(=O)N(CCCC(F)(F)F)CC3CCCCN3)cc(O)c3c(=O)cc(-c4ccccc4Cl)oc23)[C@H](O)C1 (stereo partly drawn) [Example 14, 2-(2-chlorophenyl)-5-hydroxy-8-[(3S,4R)-3-hydroxy-1-methylpiperidin-4-yl]-4-oxo-4H-1-benzopyran-7-yl [(piperidin-2-yl)methyl](4,4,4-trifluorobutyl)carbamate], the “Encapsulated compound content per 50 μmol of lipid” value [1] is reported as 2.8 mg, the Encapsulation efficiency [1] is reported as 28.4% and the Encapsulation rate [1] is reported as 26.6%.
